The subject of data set [1] is Staphylococcus aureus (ATCC No. 6538). Briefly: Antimicrobial efficacy (challenge) test, plate count. In kind it is cell-based. The note with it: for No. of Surviving Microorganisms CFU/g: 25° C., initial contamination 5.2 × 10^5 CFU/g; for antimicrobial effect in words: following one day of exposure. The protocol:
The purpose of this study was to assess the antimicrobial efficacy of 2-Formylphenyl boronic acid (FPB) aqueous solutions, in different concentrations of 10 mM, 20 mM and 40 mM. 2-FBP was obtained from Sigma Aldrich. Test Procedure: The test consisted of challenging the test solutions with specified microorganisms, storing the inoculated preparations at a prescribed temperature, removing the inoculated samples at specified intervals of time and counting the number of viable organisms in the withdrawn samples using a plate count procedure. The technical details were as follows: • The test was conducted in 20 g samples. • Each sample was separately inoculated by one of the test organisms. • The inoculated containers were incubated at 25° C. together with an uninoculated sample. • The inoculated container with P. acnes was incubated under anaerobic conditions at the same temperature. • The culture media for P. acnes was Brain Heart Infusion Agar instead of Tryptic Soy Agar. Formulations were challenged by introducing the following microorganisms: Staphylococcus aureus (ATCC No. 6538) Counting of microorganisms in the inoculated samples was performed 1, 2 and 7 days following inoculation. The number of colony-forming units (cfu/g) determined at each incubation time point was compared to the number of cfu/g measured in non-inoculated control samples of FPB solutions. Antimicrobial effectiveness results, expressed as colony forming units of surviving microorganisms in the FPB solutions (cfu/g), are detailed in Tables 1-3.

The nature of data set [2]: Solubility and compatibility of FPB in the carrier. Particulars: for solubility in the carrier: 20 mM and 40 mM. The format is physicochemical. The source says: The active agent FPB is soluble in the carrier.

Regarding `O=Cc1ccccc1B(O)O` [FPB, 2-Formylphenyl boronic acid], the “No. of Surviving Microorganisms CFU/g” value in data set [1] (10 mM FPB aqueous solution, 1 week) is below 10 CFU/g; in data set [1] (10 mM FPB aqueous solution, 1 days) it was 4.5 × 10^4 CFU/g; in data set [1] (10 mM FPB aqueous solution, 2 days) it was 5.4 × 10^2 CFU/g; in data set [1] (20 mM FPB aqueous solution, 1 week), below 10 CFU/g; in data set [1] (20 mM FPB aqueous solution, 1 days), below 10 CFU/g; in data set [1] (20 mM FPB aqueous solution, 2 days), below 10 CFU/g. Besides, the “log reduction of the count from the initial load” value in data set [1] (Solution 1 (10 mM FPB), within two days of exposure) is listed as 2.0 log. Moreover, the “antimicrobial effect in words” value in data set [1] (Solution 2 (20 mM FBA)) and in data set [1] (Solution 3 (40 mM FBA)) was “completely eradicated” each time. Moreover, in data set [1] (solutions, concentrations of 10 mM, 20 mM and 40 mM), the “effectiveness (conclusion)” value is “effective”. Further, the “interference with foam formation” value in data set [2] (emulsion carrier (Example 2)) and in data set [2] (gel carrier (Example 3)) was “does not interfere” each time. For the same compound, the “interference with the formation of an emulsion” value in data set [2] (emulsion carrier (Example 2)) is listed as “does not interfere”. For the same compound, the “solubility in the carrier” value in data set [2] (emulsion carrier (Example 2)) and in data set [2] (gel carrier (Example 3)) was “soluble” throughout.

The values are drawn from patent US20120141384A1, “ANTIBACTERIAL CONJUGATED BORONIC ACIDS AND PHARMACEUTICAL COMPOSITIONS THEREOF” (priority 2008, published 2012).
